The values that follow come from patent US20180186814A1, “TRICYCLIC COMPOUND HAVING SULFINYL OR SULFONYL” (Shionogi & Co., Ltd., priority 2015, published 2018).

Converted amounts (≈) assume the structure as drawn.

What all share (format): cell-based
Assay [1] deals with K. pneumoniae SR01453. As to the kind of experiment: MIC by microbroth dilution (CLSI), strain No. 3. To be noted: K. pneumoniae SR01453, NDM-1, MBL-producing strain, carbapenem-resistant, cation-adjusted Mueller-Hinton broth; for MIC: Klebsiella pneumoniae, read-out: minimum inhibitory concentration (MIC), Strain No. 3. The protocol:
(§1) The minimum inhibitory concentration (MIC) was measured by the microbroth dilution method in accordance with the procedures recommended by CLSI (Clinical and Laboratory Standards Institute) using 1×10^5 CFU/mL as an inoculum dose and a cation-adjusted Mueller-Hinton broth as a test medium.
(§2) The strains used are as described in the table below.

The test system of assay [2] is E. cloacae SR36276. The experiment in a line: MIC by microbroth dilution (CLSI), strain No. 5. To be noted: E. cloacae SR36276, AmpC, highly AmpC-producing strain, ceftazidime-resistant, cefepime-sensitive, cation-adjusted Mueller-Hinton broth; for MIC: Enterobacter cloacae, read-out: minimum inhibitory concentration (MIC), Strain No. 5. The protocol: as §1, §2
In assay [3] the test system is E. coli SR09613. As to the kind of experiment: MIC by microbroth dilution (CLSI), strain No. 6. As to conditions: for MIC: Escherichia coli, SR09613, read-out: minimum inhibitory concentration (MIC), Strain No. 6; for minimum inhibitory concentration (MIC), Strain No. 6: E. coli SR09613, CMY-2 type, plasmid AmpC-producing strain, ceftazidime-resistant, cefepime-sensitive, cation-adjusted Mueller-Hinton broth. On the procedure: as §1, §2

Assay [4] deals with E. coli SR09616. As to the kind of experiment: MIC by microbroth dilution (CLSI), strain No. 7. To be noted: for MIC: Escherichia coli, SR09616, read-out: minimum inhibitory concentration (MIC), Strain No. 7; for minimum inhibitory concentration (MIC), Strain No. 7: E. coli SR09616, CMY-2 type, plasmid AmpC-producing strain, ceftazidime-resistant, cefepime-sensitive, cation-adjusted Mueller-Hinton broth. On the procedure:
as §1, §2

The subject of assay [5] is E. cloacae ATCC13047. The experiment in a line: MIC by microbroth dilution (CLSI), strain No. 1. To be noted: E. cloacae ATCC13047, AmpC, ceftazidime-resistant, cefepime-sensitive, cation-adjusted Mueller-Hinton broth; for MIC: Enterobacter cloacae, read-out: minimum inhibitory concentration (MIC), Strain No. 1. On the procedure: as §1, §2
(In general: Dilution methods test growth across graded concentrations, often in twofold steps.)

Assay [6] has as its system K. pneumoniae NCTC13443. As to the kind of experiment: MIC by microbroth dilution (CLSI), strain No. 4. As to conditions: K. pneumoniae NCTC13443, NDM-1, MBL-producing strain, carbapenem-resistant, cation-adjusted Mueller-Hinton broth; for MIC: Klebsiella pneumoniae, read-out: minimum inhibitory concentration (MIC), Strain No. 4. On the procedure:
as §1, §2

Assay [7] concerns K. pneumoniae SR01358. As to the kind of experiment: MIC by microbroth dilution (CLSI), strain No. 2. To be noted: K. pneumoniae SR01358, KPC-2, KPC-producing strain, cation-adjusted Mueller-Hinton broth. The protocol:
as §1, §2

Consider `N#CCO/N=C(\C(=O)N[C@@H]1C(=O)N2[C@@H]1[S@@+]([O-])C[C@@H]1CC(=O)O[C@@]12C(=O)O)c1csc(N)n1` [Compound I-039], for which the MIC is 0.125 µg/mL (≈ 0.259 µM) in assay [1]; 2 µg/mL (≈ 4.15 µM) in assay [2]; 0.25 µg/mL (≈ 0.518 µM) in assay [3]; 1 µg/mL (≈ 2.07 µM) in assay [4]; 0.5 µg/mL (≈ 1.04 µM) in assay [5]; 4 µg/mL (≈ 8.29 µM) in assay [6].
In the case of `C[n+]1ccc(CO/N=C(\C(=O)N[C@@H]2C(=O)N3[C@@H]2[S@@+]([O-])C[C@@H]2CC(=O)O[C@@]23C(=O)[O-])c2csc(N)n2)cc1` [Compound I-041], the MIC in assay [1] is 0.5 µg/mL (≈ 0.911 µM); in assay [3], 0.5 µg/mL (≈ 0.911 µM); in assay [4], 2 µg/mL (≈ 3.65 µM); in assay [5], 1 µg/mL (≈ 1.82 µM).
Regarding `Nc1nc(/C(=N/OCc2cccnc2)C(=O)N[C@@H]2C(=O)N3[C@@H]2[S@@+]([O-])C[C@@H]2CC(=O)O[C@@]23C(=O)O)cs1` [Compound I-042], the MIC was 2 µg/mL (≈ 3.74 µM) in assay [1], 4 µg/mL (≈ 7.48 µM) in assay [3] and 4 µg/mL (≈ 7.48 µM) in assay [4].
On to `Nc1nc(/C(=N/OC[C@@H](O)CO)C(=O)N[C@@H]2C(=O)N3[C@@H]2[S@@+]([O-])C[C@@H]2CC(=O)O[C@@]23C(=O)O)cs1` [Compound I-044], for which the MIC turned out to be 1 µg/mL (≈ 1.93 µM) in assay [1]; 1 µg/mL (≈ 1.93 µM) in assay [2]; 0.25 µg/mL (≈ 0.483 µM) in assay [3]; 1 µg/mL (≈ 1.93 µM) in assay [4]; 0.5 µg/mL (≈ 0.966 µM) in assay [5]; 2 µg/mL (≈ 3.86 µM) in assay [6].
Regarding `Nc1nc(/C(=N/OCS(=O)(=O)O)C(=O)N[C@@H]2C(=O)N3[C@@H]2[S@@+](O)C[C@@H]2CC(=O)O[C@@]23C(=O)O)cs1` [Compound I-047], the “minimum inhibitory concentration (MIC), Strain No. 3” value in assay [1] came to 0.25 µg/mL. For the same molecule, in assay [2], the “minimum inhibitory concentration (MIC), Strain No. 5” value stood at 0.25 µg/mL. Further, the “minimum inhibitory concentration (MIC), Strain No. 6” value in assay [3] stood at 0.063 µg/mL. The “minimum inhibitory concentration (MIC), Strain No. 7” value in assay [4] amounted to 0.25 µg/mL. Besides, the “minimum inhibitory concentration (MIC), Strain No. 1” value in assay [5] was found to be 0.25 µg/mL. Moreover, in assay [6], the “minimum inhibitory concentration (MIC), Strain No. 4” value was found to be 2 µg/mL.
For `CONC(=O)CO/N=C(\C(=O)N[C@@H]1C(=O)N2[C@@H]1[S+](O)C[C@@H]1CC(=O)O[C@@]12C(=O)O)c1csc(N)n1` (stereo partly drawn) [Compound I-048], the MIC in assay [1] was 0.125 µg/mL; in assay [2] it was 1 µg/mL; in assay [3], 0.125 µg/mL; in assay [4] it was 0.5 µg/mL; in assay [5], 0.25 µg/mL; in assay [6], 4 µg/mL.
As to `Nc1nc(/C(=N/OCC(=O)NO)C(=O)N[C@@H]2C(=O)N3[C@@H]2[S+](O)C[C@@H]2CC(=O)O[C@@]23C(=O)O)cs1` (stereo partly drawn) [Compound I-049], the “minimum inhibitory concentration (MIC), Strain No. 3” value in assay [1] worked out at 0.063 µg/mL. In addition, the “minimum inhibitory concentration (MIC), Strain No. 5” value in assay [2] turned out to be 0.5 µg/mL. Besides, the “minimum inhibitory concentration (MIC), Strain No. 6” value in assay [3] amounted to 0.063 µg/mL. The “minimum inhibitory concentration (MIC), Strain No. 7” value in assay [4] came to 0.5 µg/mL. Further, the “minimum inhibitory concentration (MIC), Strain No. 1” value in assay [5] turned out to be 0.125 µg/mL. For the same molecule, in assay [6], the “minimum inhibitory concentration (MIC), Strain No. 4” value was found to be 2 µg/mL.
Consider `Nc1nc(/C(=N/OC[C@H](O)CO)C(=O)N[C@@H]2C(=O)N3[C@@H]2[S@@+]([O-])C[C@@H]2CC(=O)O[C@@]23C(=O)O)cs1` [Compound I-050], for which the MIC in assay [1] was 0.5 µg/mL (≈ 0.966 µM); in assay [2], 1 µg/mL (≈ 1.93 µM); in assay [3] it was 0.5 µg/mL (≈ 0.966 µM); in assay [4], 4 µg/mL (≈ 7.73 µM); in assay [5] it was 0.5 µg/mL (≈ 0.966 µM); in assay [6], 4 µg/mL (≈ 7.73 µM).
With `Nc1nc(/C(=N/OC(CO)CO)C(=O)N[C@@H]2C(=O)N3[C@@H]2[S@@+]([O-])C[C@@H]2CC(=O)O[C@@]23C(=O)O)cs1` [Compound I-052], the MIC is not above 0.031 µg/mL in assay [1]; 0.125 µg/mL (≈ 0.242 µM) in assay [2]; not above 0.031 µg/mL in assay [3]; 0.063 µg/mL (≈ 0.122 µM) in assay [4]; 0.063 µg/mL (≈ 0.122 µM) in assay [5]; 0.5 µg/mL (≈ 0.966 µM) in assay [6].
Take `NC(=O)NCCO/N=C(\C(=O)N[C@@H]1C(=O)N2[C@@H]1[S@@+]([O-])C[C@@H]1CC(=O)O[C@@]12C(=O)O)c1csc(N)n1` [Compound I-056]: the MIC in assay [1] worked out at 0.5 µg/mL (≈ 0.944 µM); in assay [2], 2 µg/mL (≈ 3.78 µM); in assay [3], 0.5 µg/mL (≈ 0.944 µM); in assay [4], 2 µg/mL (≈ 3.78 µM); in assay [5], 0.5 µg/mL (≈ 0.944 µM).
Turning to `Nc1nc(/C(=N/OCCC(=O)O)C(=O)N[C@@H]2C(=O)N3[C@@H]2[S@@+]([O-])C[C@@H]2CC(=O)O[C@@]23C(=O)[O-])cs1.[Na+]` [Compound I-061], in assay [1], the “minimum inhibitory concentration (MIC), Strain No. 3” value stood at 0.25 µg/mL. Also, the “minimum inhibitory concentration (MIC), Strain No. 2” value in assay [7] worked out at 0.5 µg/mL. For the same molecule, the “minimum inhibitory concentration (MIC), Strain No. 5” value in assay [2] amounted to 0.25 µg/mL. Further, in assay [5], the “minimum inhibitory concentration (MIC), Strain No. 1” value was 0.125 µg/mL. Moreover, the “minimum inhibitory concentration (MIC), Strain No. 4” value in assay [6] was 4 µg/mL.
With `CO/N=C(\C(=O)N[C@@H]1C(=O)N2[C@@H]1S(=O)(=O)C[C@@H]1CC(=O)O[C@@]12C(=O)[O-])c1csc(N)n1.[Na+]` [Compound I-070], the MIC in assay [1] is 0.25 µg/mL; in assay [7] (Klebsiella pneumoniae, read-out: minimum inhibitory concentration (MIC), Strain No. 2) it was 1 µg/mL; in assay [2], 4 µg/mL; in assay [5], 1 µg/mL; in assay [6] it was 4 µg/mL.
On to `NCCO/N=C(\C(=O)N[C@@H]1C(=O)N2[C@@H]1[S@@+]([O-])C[C@@H]1CC(=O)O[C@@]12C(=O)O)c1csc(N)n1` [Compound I-072], for which the MIC in assay [3] and in assay [4] was 4 µg/mL (≈ 8.22 µM) each time.
